Values after ≈ are worked out from the molar mass of the structure shown. Read-outs that look alike come from different tables or passages of the source. Where a SMILES comes first, the peptide text is derived from it. [ ]: non-standard residue; d: D form. dPhe(4-NO2) = N[C@H](Cc1ccc([N+](=O)[O-])cc1)C(=O)O; dPhe(3,4,5-F3) = N[C@H](Cc1cc(F)c(F)c(F)c1)C(=O)O; dPhe(F5) = N[C@H](Cc1c(F)c(F)c(F)c(F)c1F)C(=O)O; dTrp(1-Me) = Cn1cc(C[C@@H](N)C(=O)O)c2ccccc21; dPhe(4-NH2) = Nc1ccc(C[C@@H](N)C(=O)O)cc1; dPhe(4-Me) = Cc1ccc(C[C@@H](N)C(=O)O)cc1; dPhe(2-Me) = Cc1ccccc1C[C@@H](N)C(=O)O; dPhe(4-F) = N[C@H](Cc1ccc(F)cc1)C(=O)O; dPhe(2-F) = N[C@H](Cc1ccccc1F)C(=O)O
What was measured:
[1] = Metabolic stability in human liver microsomes; type: in vitro ADME; conditions: 1 mg protein/mL; for half-life at 1 µM / microsomal CLint at 1 µM: human liver microsomes; for half-life at 1 µM / half-life: 1 µM compound, 37 °C, read-out: HLM t1/2; for microsomal CLint at 1 µM / microsomal CLint: read-out: HLM CLint; for half-life / microsomal CLint: microsomes
Method: (§1) Evaluation of the metabolic stability of the macrocyclic tetrapeptides by human and mouse liver microsomes was performed by Curia Global (Buffalo, NY, USA). […]

hKOR [2] = target: T1, hKOR (Homo sapiens, UniProt P41145); assay: Competition binding, [3H]U69,593, hKOR-CHO membranes; conditions: for Ki: [3H]U69,593, human KOR, ± S.E.M., three independent experiments, read-out: KOR Ki
human MOR = target: T2, human MOR (Homo sapiens, UniProt P35372); assay: biochemical; type: binding
T2 construct: expressed in transfected cells

[3] = Kinetic aqueous solubility; type: physicochemical; conditions: 1% DMSO, pH 7.4
Source text: Table A1 Stability of [D-Trp]- and [D-Phe^4]CJ-15,208 and selected analogs in human (HLMs) and mouse liver microsomes (MLMs)^1. and kinetic aqueous solubility. | column: Solubility ^2 / (µM)

[4] = Metabolic stability in mouse liver microsomes; type: in vitro ADME; conditions: 1 mg protein/mL; for half-life at 1 µM / microsomal CLint at 1 µM: mouse liver microsomes; for half-life at 1 µM / half-life: 1 µM compound, 37 °C, read-out: MLM t1/2; for microsomal CLint at 1 µM / microsomal CLint: read-out: MLM CLint; for half-life / microsomal CLint: microsomes
Method: as §1

hKOR [5] = target: T1, hKOR; assay: KOR cAMP assay using GloSensor-22F, agonist mode (KOR-CHO-GLO cells); type: cell-based; conditions: for Emax at 10 µM: read-out: KOR Efficacy (%)
hKOR [6] = target: T1, hKOR; assay: KOR cAMP assay using GloSensor-22F, antagonist mode (vs 10 nM U50,488); type: cell-based
Source text: A piggy-Bac (PB) transposon/transposase system was utilized to allow for the stable integration of the GloSensor-22F cAMP sensor (Promega, Madison, WI, USA) gene into genomic TTAA sites in Chinese hamster ovary cells already stably expressing the hKOR. The pFastBac hyperPB plasmid vector, which codes for the piggy-Bac transposon/transposase system, was utilized and was a kind gift from Dr. John Lueck. The multicistronic expression cassette developed for our experiments consisted of a CMV promoter driving constitutive expression of GloSensor-22F cAMP sensor, followed by an internal ribosome entry site (IRES) to drive the expression of codon-optimized HygR-P2A-mScarlet (hygromycin resistance gene and mScarlet separated by a 2A self-cleaving peptide element). To clone the expression cassette onto the pFastBac vector, the CMV promoter and GloSensor-22F were PCR amplified from pGloSensor-22F cAMP Plasmid (Promega), the IRES sequence was PCR amplified from pLVX-CMV-Galpha-oA ONE-GO (a gift from Dr. Mikel Garcia-Marcos, Addgene plasmid #189732), the HygR-P2A-mScarlet sequence was a kind gift from Dr. Lueck, and a bGH-poly(A) termination sequence was PCR amplified from pcDNA3.1(+). The pFastBac vector was linearized via overnight digestion with CspCI at 37 °C, which cuts between two inverted terminal repeat (ITR) sequences, and the corresponding backbone and all PCR fragments were gel purified and assembled via Gibson assembly using the Gibson Assembly MasterMix (New England Biolabs, Ipswich, MA, USA). The resulting pFastBac CMV GloSensor-22F IRES HygR-P2A-mScarlet bGH plasmid was transformed into NEB Stable Competent E. coli (New England Biolabs), miniprepped using the E.Z.N.A. Plasmid DNA Mini Kit (Omega Bio-Tek, Norcross, GA, USA), and sequence verified by nanopore whole-plasmid sequencing (Eurofins Genomics, Louisville, KY, USA).
3.0 × 10^6 hKOR-CHO cells were plated on a 6 cm dish and incubated for four h at 37 °C and 5% CO2 in DMEM (Corning Mediatech, Manassas, VA, USA) supplemented with 5% FBS (Corning Mediatech), 1% Penicillin/Streptomycin (Gibco, Waltham, MA, USA). The cells were then transfected with 2.0 μg pFastBac CMV GloSensor-22F IRES HygR-P2A-mScarlet bGH using PEI as a transfection reagent. The following day, transfected cells were reseeded onto a 10 cm dish at a density of 5.0 × 10^5 cells and 600 μg/mL hygromycin B (Gold Bio, St. Louis, MO, USA) was added to the culture media. Cells were cultured under selection antibiotics for seven days, and the selection process was monitored by the increase in abundance of mScarlet positive cells via epifluorescence microscopy.
Following the selection period, KOR-CHO-GLO cells were maintained at 37 °C and 5% CO2 in DMEM supplemented with 5% FBS, 1% Penicillin/Streptomycin and 300 μg/mL hygromycin B to reduce the likelihood of CMV promoter silencing. On the day of the assay, cells were detached with 0.05% trypsin (Gibco) and counted, then centrifuged (1000× g, 5 min) and resuspended in assay buffer (1xPBS, 0.1% glucose, 0.5 mM MgCl2) containing 4 mM D-luciferin substrate (Gold Bio) at approximately 2 million cells/mL. 25 μL of cells (~50,000/well) were seeded onto poly L-lysine-coated white 96-well flat bottom plates (Greiner Bio-One, Kremsmünster, Austria)) and returned to the incubator for 60 min. Following incubation, cells were allowed to equilibrate to room temperature protected from light (10–15 min). Initial luminescence readings (at least 10 cycles) were collected for each well using a FLUOstar Omega v.6.2 plate reader (BMG Labtech, Ortenberg, Germany), after which the plate was removed. Prepared 4x treatments of drug (25 μL) were added to appropriate wells followed by 50 μL of 20 μM forskolin (AmBeed, Buffalo Grove, IL, USA) before the plate was returned to the reader and luminescence measured until final plateau levels were achieved (20–30 min). Assays were performed in duplicate and repeated at least three times.

[7] = [3H]DAMGO, human MOR, ± S.E.M., three independent experiments, read-out: MOR Ki

Structure (SMILES)	half-life at 1 µM [1] [min]	microsomal CLint at 1 µM [1] [µL/min/mg]	Selectivity (MOR Ki/KOR Ki) (hKOR [2]; MOR Ki/KOR Ki)	Ki (hKOR [2]) [nM]	Ki (human MOR; [7]) [nM]	solubility kinetic [3] [µM]	half-life at 1 µM [4] [min]	microsomal CLint at 1 µM [4] [µL/min/mg]	Emax at 10 µM (hKOR [5]) [%]	IC50 (hKOR [6]) [nM]	other results
Cn1cc(C[C@H]2NC(=O)[C@H](Cc3ccccc3)NC(=O)[C@H]3CCCN3C(=O)[C@H](Cc3ccccc3)NC2=O)c2ccccc21 [Analog 2, [D-Trp(Me)]CJ-15,208] (cyclo(F[dP]F[dTrp(1-Me)]))	2.4	286	2	16 ± 0.8	36 ± 2.6	12 (≈ 7.1 µg/mL)	3.3	211	14 ± 7.1	220 ± 32	–
O=C1N[C@H](Cc2ccccc2F)C(=O)N[C@@H](Cc2ccccc2)C(=O)N2CCC[C@@H]2C(=O)N[C@H]1Cc1ccccc1 [Analog 5] (cyclo(F[dP]F[dPhe(2-F)]))	1.9	373	9	39 ± 0.57	350 ± 22	15 (≈ 8.35 µg/mL)	1.6	430	–	–	–
O=C1N[C@H](Cc2ccc(F)cc2)C(=O)N[C@@H](Cc2ccccc2)C(=O)N2CCC[C@@H]2C(=O)N[C@H]1Cc1ccccc1 [Analog 7] (cyclo(F[dP]F[dPhe(4-F)]))	–	–	–	–	–	25 (≈ 13.9 µg/mL)	–	–	5.5 ± 7.9	–	half-life [1]: 2.3 min; microsomal CLint [1]: 296 µL/min/mg; half-life [4]: 3.4 min; microsomal CLint [4]: 202 µL/min/mg
O=C1N[C@H](Cc2cc(F)c(F)cc2F)C(=O)N[C@@H](Cc2ccccc2)C(=O)N2CCC[C@@H]2C(=O)N[C@H]1Cc1ccccc1 [Analog 10]	1.5	462	10	27 ± 3.3	270 ± 30	7.4 (≈ 4.39 µg/mL)	1	699	19 ± 6.8	290 ± 40	–
O=C1N[C@H](Cc2cc(F)c(F)c(F)c2)C(=O)N[C@@H](Cc2ccccc2)C(=O)N2CCC[C@@H]2C(=O)N[C@H]1Cc1ccccc1 [Analog 11] (cyclo(F[dP]F[dPhe(3,4,5-F3)]))	1.6	447	4	12 ± 0.44	46 ± 5.4	4.8 (≈ 2.84 µg/mL)	2.9	238	2.2 ± 6.2	160 ± 19	–
O=C1N[C@H](Cc2c(F)c(F)c(F)c(F)c2F)C(=O)N[C@@H](Cc2ccccc2)C(=O)N2CCC[C@@H]2C(=O)N[C@H]1Cc1ccccc1 [Analog 12] (cyclo(F[dP]F[dPhe(F5)]))	–	–	–	310 ± 9.9	–	–	–	–	–	–	fold decrease in KOR affinity (fluorine substitution on D-Phe^4) (hKOR [2]): 13 fold
Cc1ccccc1C[C@H]1NC(=O)[C@H](Cc2ccccc2)NC(=O)[C@H]2CCCN2C(=O)[C@H](Cc2ccccc2)NC1=O [Analog 13] (cyclo(F[dP]F[dPhe(2-Me)]))	–	–	2.5	110 ± 13	280 ± 8	–	–	–	–	–	–
Cc1ccc(C[C@H]2NC(=O)[C@H](Cc3ccccc3)NC(=O)[C@H]3CCCN3C(=O)[C@H](Cc3ccccc3)NC2=O)cc1 [Analog 15] (cyclo(F[dP]F[dPhe(4-Me)]))	–	–	–	–	–	24 (≈ 13.3 µg/mL)	–	–	18 ± 1.4	–	half-life [1]: 5.4 min; microsomal CLint [1]: 129 µL/min/mg; half-life [4]: 2.9 min; microsomal CLint [4]: 236 µL/min/mg
O=C1N[C@H](Cc2ccc([N+](=O)[O-])cc2)C(=O)N[C@@H](Cc2ccccc2)C(=O)N2CCC[C@@H]2C(=O)N[C@H]1Cc1ccccc1 [Analog 16] (cyclo(F[dP]F[dPhe(4-NO2)]))	6.7	103	9	7 ± 0.99	61 ± 2.7	6.7 (≈ 3.91 µg/mL)	4.4	159	7.3 ± 7.3	210 ± 13	–
Nc1ccc(C[C@H]2NC(=O)[C@H](Cc3ccccc3)NC(=O)[C@H]3CCCN3C(=O)[C@H](Cc3ccccc3)NC2=O)cc1 [Analog 17] (cyclo(F[dP]F[dPhe(4-NH2)]))	–	–	–	–	–	–	–	–	–	–	inhibition at 10 µM (hKOR [2]; at 10 μM): 65%
Cc1cc(C)cc([C@@H]2CCCN2Cc2ccc(Oc3ccc(C(N)=O)cc3F)cc2)c1 [Aticaprant, reference compound]	–	–	–	0.77 ± 0.1	–	–	–	–	–	–	Selectivity (MOR Ki/KOR Ki) (hKOR [2]): 19; Ki (human MOR): 15 ± 2 nM; activity type in the cAMP assay (hKOR [5]): inverse agonist; KOR Efficacy (%) (hKOR [5]; mean % inhibition ± SEM at 10 µM relative to the KOR agonist U50,488, forskolin-stimulated cAMP): −48 ± 3.0 ^8%; IC50 (hKOR [6]; antagonism of an IC80 concentration (10 nM) of U50,488 in the cAMP assay, ± SEM, read-out: KOR Antag. IC50): 8 ± 1.7 nM

Reference: paper PMC12526156, “Optimization of the Macrocyclic Tetrapeptide [D-Trp]CJ-15,208 to Prevent Stress-Induced Relapse of Cocaine-Seeking Behavior” (Molecules, 2025)
